According to ChEMBL document CHEMBL1145395, “De novo design of selective antibiotic peptides by incorporation of unnatural amino acids” (J Med Chem, 2007):
In brackets after ≈: the same amount, converted by molar mass. Activity calls are given as the source filed them. No cut-off for these calls is given here. Starred links: 1 amine or outer side, 2 acyl side, 3 side chain; linkers in the order of their positions; H or OH if unused. Non-standard residues stand in square brackets, D forms with d. Residues, ends and D or L forms follow the SMILES beside them. ξ: configuration not given here. *: point of attachment. Biotin = O=C1N[C@H]2[C@H](CS[C@H]2CCCCC(=O)*)N1; Pro(3ξ,4ξ-(CH2)4) = O=C(O)[C@H]1NCC2CCCCC21; Oic = O=C(O)[C@@H]1C[C@@H]2CCCC[C@@H]2N1; X1 = O=C([C@@H]1CN([*:1])C2CCCCC21)[*:2]; Phe(4-F) = N[C@@H](Cc1ccc(F)cc1)C(=O)O; Ethylenediamine = C(CN[*:2])N[*:1]; Tic = O=C(O)[C@@H]1Cc2ccccc2CN1; Dap = NC[C@H](N)C(=O)O; NH(CH2)3NH2 = NCCCN*; GABA = NCCCC(=O)O; βAla = NCCC(=O)O

Experiments:
Bacillus subtilis = assay: Antibacterial activity against Bacillus subtilis ATCC 43223; format: functional
Salmonella typhimurium = assay: Antibacterial activity against Salmonella Typhimurium ATCC 13311; format: functional; conditions: for MIC: Salmonella enterica
[1] = Toxicity to mouse RBC assessed as hemolytic activity at 100 uM; format: cell-based, Erythrocyte; conditions: red blood cells, read-out: Activity
Staphylococcus aureus = assay: Antibacterial activity against methicillin/gentamicin/tetracycline resistant Staphylococcus aureus ATCC 33592; format: functional
Mycobacterium = assay: Antibacterial activity against Mycobacterium ranae ATCC 110; format: functional
[2] = Toxicity to mouse RBC assessed as hemolytic activity at 25 uM; format: cell-based, Erythrocyte; conditions: red blood cells, read-out: Activity

| Compound | MIC (Bacillus subtilis) [µM] | Activity (Salmonella typhimurium; Salmonella enterica subsp. enterica serovar Typhimurium) | hemolysis at 100 µM [1] [%] | MIC (Staphylococcus aureus) [µM] | MIC (Mycobacterium) [µM] | MIC (Salmonella typhimurium) [µM] | hemolysis at 25 µM [2] [%] |
| --- | --- | --- | --- | --- | --- | --- | --- |
| CC(C)C[C@H](NC(=O)[C@@H](N)CCCCN)C(=O)N1Cc2ccccc2C[C@H]1C(=O)N1C[C@@H](C(=O)N[C@@H](CCCCN)C(=O)N2Cc3ccccc3C[C@H]2C(=O)N2C[C@@H](C(=O)N[C@@H](Cc3ccccc3)C(=O)N3Cc4ccccc4C[C@H]3C(=O)N3C[C@@H](C(=O)N[C@@H](CCCCN)C(=O)N4Cc5ccccc5C[C@H]4C(=O)N4C[C@@H](C(=O)N[C@@H](Cc5ccccc5)C(=O)N5Cc6ccccc6C[C@H]5C(=O)N5C[C@@H](C(=O)N[C@@H](CCCCN)C(=O)N6Cc7ccccc7C[C@H]6C(=O)N6C[C@@H](C(=O)N[C@@H](CCCCN)C(=O)N[C@@H](CCCNC(=N)N)C(N)=O)C7CCCCC76)C6CCCCC65)C5CCCCC54)C4CCCCC43)C3CCCCC32)C2CCCCC21 (stereo partly drawn) (H-KL[Tic][X1]K[Tic][X1]F[Tic][X1]K[Tic][X1]F[Tic][X1]K[Tic][X1]KR-NH2) | 1 (≈ 3.08 µg/mL) | inactive | 63 | 10 (≈ 30.8 µg/mL) | 30 (≈ 92.5 µg/mL) |  |  |
| CC(=O)NCCC(=O)N[C@@H](Cc1ccc(F)cc1)C(=O)N1Cc2ccccc2C[C@H]1C(=O)N1CC2CCCCC2[C@H]1C(=O)NCCC(=O)N[C@@H](CN)C(=O)N1Cc2ccccc2C[C@H]1C(=O)N1CC2CCCCC2[C@H]1C(=O)NCCC(=O)N[C@@H](Cc1ccc(F)cc1)C(=O)N1Cc2ccccc2C[C@H]1C(=O)N1CC2CCCCC2[C@H]1C(=O)NCCC(=O)N[C@@H](CN)C(=O)N1Cc2ccccc2C[C@H]1C(=O)N[C@@H](CN)C(=O)N[C@@H](CN)C(=O)N[C@@H](CN)C(=O)N[C@@H](CN)C(N)=O (stereo partly drawn) (Ac-[βAla][Phe(4-F)][Tic][Pro(3ξ,4ξ-(CH2)4)][βAla][Dap][Tic][Pro(3ξ,4ξ-(CH2)4)][βAla][Phe(4-F)][Tic][Pro(3ξ,4ξ-(CH2)4)][βAla][Dap][Tic][Dap][Dap][Dap][Dap]-NH2) | 0.3 (≈ 0.684 µg/mL) |  |  | 30 (≈ 68.4 µg/mL) | 100 (≈ 228 µg/mL) | 3 (≈ 6.84 µg/mL) |  |
| NCCCC[C@H](NC(=O)[C@H](CCCCN)NC(=O)[C@H](CCCCN)NC(=O)[C@H](CCCCN)NC(=O)[C@@H]1Cc2ccccc2CN1C(=O)[C@H](CCCCN)NC(=O)CNC(=O)[C@@H]1C[C@@H]2CCCC[C@@H]2N1C(=O)[C@@H]1Cc2ccccc2CN1C(=O)[C@H](Cc1ccccc1)NC(=O)CNC(=O)[C@@H]1C[C@@H]2CCCC[C@@H]2N1C(=O)[C@@H]1Cc2ccccc2CN1C(=O)[C@H](CCCCN)NC(=O)CNC(=O)[C@@H]1C[C@@H]2CCCC[C@@H]2N1C(=O)[C@@H]1Cc2ccccc2CN1C(=O)[C@H](Cc1ccccc1)NC(=O)CN)C(N)=O (H-GF[Tic][Oic]GK[Tic][Oic]GF[Tic][Oic]GK[Tic]KKKK-NH2) | 1 (≈ 2.4 µg/mL) |  |  | 10 (≈ 24 µg/mL) | 10 (≈ 24 µg/mL) | 3 (≈ 7.2 µg/mL) |  |
| CC(=O)NCC(=O)N[C@@H](Cc1ccccc1)C(=O)N1Cc2ccccc2C[C@H]1C(=O)N1[C@H](C(=O)NCC(=O)N[C@@H](CCCCN)C(=O)N2Cc3ccccc3C[C@H]2C(=O)N2[C@H](C(=O)NCC(=O)N[C@@H](Cc3ccccc3)C(=O)N3Cc4ccccc4C[C@H]3C(=O)N3[C@H](C(=O)NCC(=O)N[C@@H](CCCCN)C(=O)N4Cc5ccccc5C[C@H]4C(=O)N[C@@H](CCCCN)C(=O)N[C@@H](CCCCN)C(=O)N[C@@H](CCCCN)C(=O)N[C@@H](CCCCN)C(=O)NCCCN)C[C@@H]4CCCC[C@@H]43)C[C@@H]3CCCC[C@@H]32)C[C@@H]2CCCC[C@@H]21 (Ac-GF[Tic][Oic]GK[Tic][Oic]GF[Tic][Oic]GK[Tic]KKKK-{NH(CH2)3NH2}) | 3 (≈ 7.49 µg/mL) |  |  | 10 (≈ 25 µg/mL) | 10 (≈ 25 µg/mL) | 30 (≈ 74.9 µg/mL) |  |
| CC(=O)NCCCC(=O)N[C@@H](Cc1ccccc1)C(=O)N1Cc2ccccc2C[C@H]1C(=O)N1[C@H](C(=O)NCCCC(=O)N[C@@H](CCCCN)C(=O)N2Cc3ccccc3C[C@H]2C(=O)N2[C@H](C(=O)NCCCC(=O)N[C@@H](Cc3ccccc3)C(=O)N3Cc4ccccc4C[C@H]3C(=O)N3[C@H](C(=O)NCCCC(=O)N[C@@H](CCCCN)C(=O)N4Cc5ccccc5C[C@H]4C(=O)N[C@@H](CCCCN)C(=O)N[C@@H](CCCCN)C(=O)N[C@@H](CCCCN)C(=O)N[C@@H](CCCCN)C(=O)N[C@@H](CCCCN)C(N)=O)C[C@@H]4CCCC[C@@H]43)C[C@@H]3CCCC[C@@H]32)C[C@@H]2CCCC[C@@H]21 (Ac-[GABA]F[Tic][Oic][GABA]K[Tic][Oic][GABA]F[Tic][Oic][GABA]K[Tic]KKKKK-NH2) | 1 (≈ 2.68 µg/mL) |  |  | 30 (≈ 80.4 µg/mL) | 3 (≈ 8.04 µg/mL) | 10 (≈ 26.8 µg/mL) |  |
| CC(=O)NCC(=O)N[C@@H](Cc1ccccc1)C(=O)N1Cc2ccccc2C[C@H]1C(=O)N1CC2CCCCC2[C@H]1C(=O)NCC(=O)N[C@@H](CCCCN)C(=O)N1Cc2ccccc2C[C@H]1C(=O)N1CC2CCCCC2[C@H]1C(=O)NCC(=O)N[C@@H](Cc1ccccc1)C(=O)N1Cc2ccccc2C[C@H]1C(=O)N1CC2CCCCC2[C@H]1C(=O)NCC(=O)N[C@@H](CCCCN)C(=O)N1Cc2ccccc2C[C@H]1C(=O)N[C@@H](CCCCN)C(=O)N[C@@H](CCCCN)C(=O)N[C@@H](CCCCN)C(=O)N[C@@H](CCCCN)C(=O)N[C@@H](CCCCN)C(N)=O (stereo partly drawn) (Ac-GF[Tic][Pro(3ξ,4ξ-(CH2)4)]GK[Tic][Pro(3ξ,4ξ-(CH2)4)]GF[Tic][Pro(3ξ,4ξ-(CH2)4)]GK[Tic]KKKKK-NH2) [listing 1 of 2 here] |  |  | 24.9 |  |  |  | 18.9 |
| CC(=O)NCC(=O)N[C@@H](Cc1ccccc1)C(=O)N1Cc2ccccc2C[C@H]1C(=O)N1CC2CCCCC2[C@H]1C(=O)NCC(=O)N[C@@H](CCCCN)C(=O)N1Cc2ccccc2C[C@H]1C(=O)N1CC2CCCCC2[C@H]1C(=O)NCC(=O)N[C@@H](Cc1ccccc1)C(=O)N1Cc2ccccc2C[C@H]1C(=O)N1CC2CCCCC2[C@H]1C(=O)NCC(=O)N[C@@H](CCCCN)C(=O)N1Cc2ccccc2C[C@H]1C(=O)N[C@@H](CCCCN)C(=O)N[C@@H](CCCCN)C(=O)N[C@@H](CCCCN)C(=O)N[C@@H](CCCCN)C(=O)N[C@@H](CCCCN)C(N)=O (stereo partly drawn) (Ac-GF[Tic][Pro(3ξ,4ξ-(CH2)4)]GK[Tic][Pro(3ξ,4ξ-(CH2)4)]GF[Tic][Pro(3ξ,4ξ-(CH2)4)]GK[Tic]KKKKK-NH2) [listing 2 of 2 here] | 1 (≈ 2.57 µg/mL) |  |  | 3 (≈ 7.71 µg/mL) | 3 (≈ 7.71 µg/mL) | 10 (≈ 25.7 µg/mL) |  |
| NCCCC[C@H](NC(=O)[C@H](CCCCN)NC(=O)[C@H](CCCCN)NC(=O)[C@H](CCCCN)NC(=O)[C@@H]1Cc2ccccc2CN1C(=O)[C@H](CCCCN)NC(=O)CNC(=O)[C@@H]1C[C@@H]2CCCC[C@@H]2N1C(=O)[C@@H]1Cc2ccccc2CN1C(=O)[C@H](Cc1ccccc1)NC(=O)CNC(=O)[C@@H]1C[C@@H]2CCCC[C@@H]2N1C(=O)[C@@H]1Cc2ccccc2CN1C(=O)[C@H](CCCCN)NC(=O)CNC(=O)[C@@H]1C[C@@H]2CCCC[C@@H]2N1C(=O)[C@@H]1Cc2ccccc2CN1C(=O)[C@H](Cc1ccccc1)NC(=O)CNC(=O)CCCC[C@@H]1SC[C@@H]2NC(=O)N[C@@H]21)C(N)=O (Biotin-GF[Tic][Oic]GK[Tic][Oic]GF[Tic][Oic]GK[Tic]KKKK-NH2) | 1 (≈ 2.63 µg/mL) |  |  | 3 (≈ 7.88 µg/mL) | 10 (≈ 26.3 µg/mL) | 30 (≈ 78.8 µg/mL) |  |
| CC(=O)NCC(=O)N[C@@H](Cc1ccccc1)C(=O)N1Cc2ccccc2C[C@H]1C(=O)N1[C@H](C(=O)NCC(=O)N[C@@H](CN)C(=O)N2Cc3ccccc3C[C@H]2C(=O)N2[C@H](C(=O)NCC(=O)N[C@@H](Cc3ccccc3)C(=O)N3Cc4ccccc4C[C@H]3C(=O)N3[C@H](C(=O)NCC(=O)N[C@@H](CN)C(=O)N4Cc5ccccc5C[C@H]4C(=O)N[C@@H](CN)C(=O)N[C@@H](CN)C(=O)N[C@@H](CN)C(=O)N[C@@H](CN)C(N)=O)C[C@@H]4CCCC[C@@H]43)C[C@@H]3CCCC[C@@H]32)C[C@@H]2CCCC[C@@H]21 (Ac-GF[Tic][Oic]G[Dap][Tic][Oic]GF[Tic][Oic]G[Dap][Tic][Dap][Dap][Dap][Dap]-NH2) | 1 (≈ 2.19 µg/mL) |  |  | 10 (≈ 21.9 µg/mL) | 100 (≈ 219 µg/mL) | 3 (≈ 6.57 µg/mL) |  |
| CC(=O)NCC(=O)N[C@@H](Cc1ccccc1)C(=O)N1Cc2ccccc2C[C@H]1C(=O)N1[C@H](C(=O)NCC(=O)N[C@@H](CCCCN)C(=O)N2Cc3ccccc3C[C@H]2C(=O)N2[C@H](C(=O)NCC(=O)N[C@@H](Cc3ccccc3)C(=O)N3Cc4ccccc4C[C@H]3C(=O)N3[C@H](C(=O)NCC(=O)N[C@@H](CCCCN)C(=O)N4Cc5ccccc5C[C@H]4C(=O)N[C@@H](CCCCN)C(=O)N[C@@H](CCCCN)C(=O)N[C@@H](CCCCN)C(=O)N[C@@H](CCCCN)C(=O)NCCN)C[C@@H]4CCCC[C@@H]43)C[C@@H]3CCCC[C@@H]32)C[C@@H]2CCCC[C@@H]21 (Ac-GF[Tic][Oic]GK[Tic][Oic]GF[Tic][Oic]GK[Tic]KKKK-Ethylenediamine) | 1 (≈ 2.48 µg/mL) |  |  | 3 (≈ 7.45 µg/mL) | 10 (≈ 24.8 µg/mL) | 10 (≈ 24.8 µg/mL) |  |
| CC(=O)NCC(=O)N[C@@H](Cc1ccc(F)cc1)C(=O)N1Cc2ccccc2C[C@H]1C(=O)N1CC2CCCCC2[C@H]1C(=O)NCC(=O)N[C@@H](CCCCN)C(=O)N1Cc2ccccc2C[C@H]1C(=O)N1CC2CCCCC2[C@H]1C(=O)NCC(=O)N[C@@H](Cc1ccc(F)cc1)C(=O)N1Cc2ccccc2C[C@H]1C(=O)N1CC2CCCCC2[C@H]1C(=O)NCC(=O)N[C@@H](CCCCN)C(=O)N1Cc2ccccc2C[C@H]1C(=O)N[C@@H](CCCCN)C(=O)N[C@@H](CCCCN)C(=O)N[C@@H](CCCCN)C(=O)N[C@@H](CCCCN)C(N)=O (stereo partly drawn) (Ac-G[Phe(4-F)][Tic][Pro(3ξ,4ξ-(CH2)4)]GK[Tic][Pro(3ξ,4ξ-(CH2)4)]G[Phe(4-F)][Tic][Pro(3ξ,4ξ-(CH2)4)]GK[Tic]KKKK-NH2) | 0.3 (≈ 0.743 µg/mL) |  |  | 10 (≈ 24.8 µg/mL) | 3 (≈ 7.43 µg/mL) | 30 (≈ 74.3 µg/mL) |  |
